Results as given in patent US20230172204A1 (BASF SE, priority 2020, published 2023).

Key:
[1] = test system: Phakopsora pachyrhizi (F129L); test: Protective control of soybean rust on soybeans (PHAKPA P6); type: in vivo; settings: for % PHAKPA (F129L) Disease level P6 at 4 ppm: protective P6, 4 ppm; for % PHAKPA (F129L) Disease level P6 at 4 ppm / % PHAKPA (F129L) Disease level P6 at 16 ppm: soybean rust F129L; for % PHAKPA (F129L) Disease level P6 at 16 ppm: protective P6, 16 ppm
[2] = test system: Phakopsora pachyrhizi (F129L); test: Protective control of soybean rust on soybeans (PHAKPA P2); type: in vivo; settings: for % PHAKPA (F129L) Disease level P2 at 4 ppm: protective P2, 4 ppm; for % PHAKPA (F129L) Disease level P2 at 4 ppm / % PHAKPA (F129L) Disease level P2 at 16 ppm: soybean rust F129L; for % PHAKPA (F129L) Disease level P2 at 16 ppm: protective P2, 16 ppm

## CO/N=C(/C(=O)OC)c1cccc(C)c1CO/N=C(\C)c1cc(C)cc(C)c1 [compound 94]
[1]
  % PHAKPA (F129L) Disease level P6 at 4 ppm: 35%
  % PHAKPA (F129L) Disease level P6 at 16 ppm: 2%
[2]
  % PHAKPA (F129L) Disease level P2 at 4 ppm: 22%
  % PHAKPA (F129L) Disease level P2 at 16 ppm: 5%

## CO/N=C(/C(=O)OC)c1cccc(C)c1CO/N=C(\C)c1ccc(OC(F)(F)F)cc1Cl [compound 268]
[1]
  % PHAKPA (F129L) Disease level P6 at 4 ppm: 60%
  % PHAKPA (F129L) Disease level P6 at 16 ppm: 17%
[2]
  % PHAKPA (F129L) Disease level P2 at 4 ppm: 63%
  % PHAKPA (F129L) Disease level P2 at 16 ppm: 6%

## CO/N=C(/C(=O)OC)c1cccc(C)c1CO/N=C(\C)c1cc(F)cc(C(F)(F)F)c1 [compound 51]
[1]
  % PHAKPA (F129L) Disease level P6 at 4 ppm: 15%
  % PHAKPA (F129L) Disease level P6 at 16 ppm: 0%
[2]
  % PHAKPA (F129L) Disease level P2 at 4 ppm: 28%
  % PHAKPA (F129L) Disease level P2 at 16 ppm: 2%

## CNC(=O)/C(=N/OC)c1cccc(C)c1CO/N=C(\COC)c1cccc(C(F)(F)F)c1 [compound 186]
[1]
  % PHAKPA (F129L) Disease level P6 at 4 ppm: 2%
  % PHAKPA (F129L) Disease level P6 at 16 ppm: 0%
[2]
  % PHAKPA (F129L) Disease level P2 at 4 ppm: 1%
  % PHAKPA (F129L) Disease level P2 at 16 ppm: 0%

## CNC(=O)/C(=N/OC)c1ccccc1CO/N=C(/c1ccc(F)cc1)C(F)F [reference compound]
[1]; P6 protective, 16 ppm, % diseased leaf area
  PHAKPA (F129L) Disease level (%) P6 at 16 ppm: 15%
[2]; P2 protective, 16 ppm, % diseased leaf area
  PHAKPA (F129L) Disease level (%) P2 at 16 ppm: 15%

## CO/N=C(/C(=O)OC)c1cccc(C)c1CO/N=C(\C)c1cc(F)ccc1C(F)(F)F [compound 249]
[1]
  % PHAKPA (F129L) Disease level P6 at 4 ppm: 90%
  % PHAKPA (F129L) Disease level P6 at 16 ppm: 43%
[2]
  % PHAKPA (F129L) Disease level P2 at 4 ppm: 87%
  % PHAKPA (F129L) Disease level P2 at 16 ppm: 37%

## CNC(=O)/C(=N/OC)c1cccc(C)c1CO/N=C(\C)c1cccc(/C(C)=N/OC)c1 [Ex. 15]
[1]
  % PHAKPA (F129L) Disease level P6 at 4 ppm: 24%
  % PHAKPA (F129L) Disease level P6 at 16 ppm: 1%
[2]
  % PHAKPA (F129L) Disease level P2 at 4 ppm: 4%
  % PHAKPA (F129L) Disease level P2 at 16 ppm: 0%

## CO/N=C(/C(=O)OC)c1cccc(C)c1CO/N=C(/c1ccccc1)C(F)F [compound 72]
[1]
  % PHAKPA (F129L) Disease level P6 at 4 ppm: 93%
  % PHAKPA (F129L) Disease level P6 at 16 ppm: 80%
[2]
  % PHAKPA (F129L) Disease level P2 at 4 ppm: 100%
  % PHAKPA (F129L) Disease level P2 at 16 ppm: 87%

## CNC(=O)/C(=N/OC)c1cccc(C)c1CO/N=C(\C)c1cc(C(F)(F)F)cc(C(F)(F)F)c1 [compound 32]
[1]
  % PHAKPA (F129L) Disease level P6 at 4 ppm: 73%
  % PHAKPA (F129L) Disease level P6 at 16 ppm: 43%
[2]
  % PHAKPA (F129L) Disease level P2 at 4 ppm: 80%
  % PHAKPA (F129L) Disease level P2 at 16 ppm: 50%

## CNC(=O)/C(=N/OC)c1cccc(C)c1CO/N=C(\C)c1cc(C(F)(F)F)cc(F)c1F [compound 197]
[1]
  % PHAKPA (F129L) Disease level P6 at 4 ppm: 2%
  % PHAKPA (F129L) Disease level P6 at 16 ppm: 0%
[2]
  % PHAKPA (F129L) Disease level P2 at 4 ppm: 0%
  % PHAKPA (F129L) Disease level P2 at 16 ppm: 0%

## CO/N=C(/C(=O)OC)c1cccc(C)c1CO/N=C(\C)c1ccc(F)c(F)c1OC(F)(F)F [compound 447]
[1]
  % PHAKPA (F129L) Disease level P6 at 4 ppm: 33%
  % PHAKPA (F129L) Disease level P6 at 16 ppm: 1%
[2]
  % PHAKPA (F129L) Disease level P2 at 4 ppm: 7%
  % PHAKPA (F129L) Disease level P2 at 16 ppm: 0%

## CNC(=O)/C(=N/OC)c1cccc(C)c1CO/N=C(\C)c1cccc(OC/C(C)=N/OC)c1 [compound 226]
[1]
  % PHAKPA (F129L) Disease level P6 at 4 ppm: 57%
  % PHAKPA (F129L) Disease level P6 at 16 ppm: 7%
[2]
  % PHAKPA (F129L) Disease level P2 at 4 ppm: 28%
  % PHAKPA (F129L) Disease level P2 at 16 ppm: 3%

## CNC(=O)/C(=N/OC)c1cccc(C)c1CO/N=C(\C)c1ccc(Cl)c(Cl)c1C(F)(F)F [compound 431]
[1]
  % PHAKPA (F129L) Disease level P6 at 4 ppm: 40%
  % PHAKPA (F129L) Disease level P6 at 16 ppm: 12%
[2]
  % PHAKPA (F129L) Disease level P2 at 4 ppm: 32%
  % PHAKPA (F129L) Disease level P2 at 16 ppm: 7%

## CNC(=O)/C(=N/OC)c1cccc(C)c1CO/N=C(\C)c1ccc(Cl)c(C)c1 [compound 107]
[1]
  % PHAKPA (F129L) Disease level P6 at 4 ppm: 15%
  % PHAKPA (F129L) Disease level P6 at 16 ppm: 1%
[2]
  % PHAKPA (F129L) Disease level P2 at 4 ppm: 1%
  % PHAKPA (F129L) Disease level P2 at 16 ppm: 0%

## CNC(=O)/C(=N/OC)c1cccc(C)c1CO/N=C(\C)c1ccc(F)cc1F [compound 267]
[1]
  % PHAKPA (F129L) Disease level P6 at 4 ppm: 10%
  % PHAKPA (F129L) Disease level P6 at 16 ppm: 4%
[2]
  % PHAKPA (F129L) Disease level P2 at 4 ppm: 2%
  % PHAKPA (F129L) Disease level P2 at 16 ppm: 0%

## CNC(=O)/C(=N/OC)c1cccc(C)c1CO/N=C(\C)c1cc(C(F)(F)F)ccc1F [compound 199]
[1]
  % PHAKPA (F129L) Disease level P6 at 4 ppm: 0%
  % PHAKPA (F129L) Disease level P6 at 16 ppm: 0%
[2]
  % PHAKPA (F129L) Disease level P2 at 4 ppm: 0%
  % PHAKPA (F129L) Disease level P2 at 16 ppm: 0%

## CNC(=O)/C(=N/OC)c1cccc(C)c1CO/N=C(\C)c1cccc(N2CC(F)(F)C2)c1 [compound 44]
[1]
  % PHAKPA (F129L) Disease level P6 at 4 ppm: 77%
  % PHAKPA (F129L) Disease level P6 at 16 ppm: 21%
[2]
  % PHAKPA (F129L) Disease level P2 at 4 ppm: 77%
  % PHAKPA (F129L) Disease level P2 at 16 ppm: 17%

## CO/N=C(/C(=O)OC)c1cccc(C)c1CO/N=C(\C)c1ccc(F)cc1 [compound 103]
[1]
  % PHAKPA (F129L) Disease level P6 at 4 ppm: 35%
  % PHAKPA (F129L) Disease level P6 at 16 ppm: 4%
[2]
  % PHAKPA (F129L) Disease level P2 at 4 ppm: 40%
  % PHAKPA (F129L) Disease level P2 at 16 ppm: 3%
